Experimental data: patent US20240109903A1, “SUBSTITUTED HETEROCYCLES FOR TREATING CANCER” (Northwestern University, priority 2022, published 2024)

Key:
SN12C = assay: NCI 60 five-dose screen SN12C; type: cell-based; conditions: Homo sapiens, five-dose
NCI-H23 = assay: NCI 60 five-dose screen NCI-H23; type: cell-based; conditions: Homo sapiens, five-dose
UACC-62 = assay: NCI 60 five-dose screen UACC-62; type: cell-based; conditions: Homo sapiens, five-dose
SNB-75 = assay: NCI 60 five-dose screen SNB-75; type: cell-based; conditions: Homo sapiens, five-dose
SW-620 = assay: NCI 60 five-dose screen SW-620; type: cell-based; conditions: Homo sapiens, five-dose
SF-539 = assay: NCI 60 five-dose screen SF-539; type: cell-based; conditions: Homo sapiens, five-dose
MDA-MB-468 = assay: NCI 60 five-dose screen MDA-MB-468; type: cell-based; conditions: Homo sapiens, five-dose
ACHN = assay: NCI 60 five-dose screen ACHN; type: cell-based; conditions: Homo sapiens, five-dose
SK-MEL-28 = assay: NCI 60 five-dose screen SK-MEL-28; type: cell-based; conditions: Homo sapiens, five-dose
SR = assay: NCI 60 five-dose screen SR; type: cell-based, human; conditions: five-dose
A549/ATCC = assay: NCI 60 five-dose screen A549/ATCC; type: cell-based; conditions: Homo sapiens, five-dose
HCC-2998 = assay: NCI 60 five-dose screen HCC-2998; type: cell-based; conditions: Homo sapiens, five-dose
SK-MEL-5 = assay: NCI 60 five-dose screen SK-MEL-5; type: cell-based; conditions: Homo sapiens, five-dose
M14 = assay: NCI 60 five-dose screen M14; type: cell-based; conditions: Homo sapiens, five-dose
HT29 = assay: NCI 60 five-dose screen HT29; type: cell-based; conditions: Homo sapiens, HT-29, five-dose
HOP-62 = assay: NCI 60 five-dose screen HOP-62; type: cell-based; conditions: Homo sapiens, five-dose
UACC-257 = assay: NCI 60 five-dose screen UACC-257; type: cell-based; conditions: Homo sapiens, five-dose
A498 = assay: NCI 60 five-dose screen A498; type: cell-based; conditions: Homo sapiens, five-dose
SK-OV-3 = assay: NCI 60 five-dose screen SK-OV-3; type: cell-based; conditions: Homo sapiens, five-dose
OVCAR-4 = assay: NCI 60 five-dose screen OVCAR-4; type: cell-based; conditions: Homo sapiens, five-dose
U251 = assay: NCI 60 five-dose screen U251; type: cell-based; conditions: Homo sapiens, U-251, five-dose
T-47D = assay: NCI 60 five-dose screen T-47D; type: cell-based; conditions: Homo sapiens, T47D, five-dose
HS 578T = assay: NCI 60 five-dose screen HS 578T; type: cell-based; conditions: Homo sapiens, five-dose
COLO 205 = assay: NCI 60 five-dose screen COLO 205; type: cell-based; conditions: Homo sapiens, five-dose
SK-MEL-2 = assay: NCI 60 five-dose screen SK-MEL-2; type: cell-based; conditions: Homo sapiens, five-dose
SNB-19 = assay: NCI 60 five-dose screen SNB-19; type: cell-based; conditions: Homo sapiens, five-dose
MDA-MB-231/ATCC = assay: NCI 60 five-dose screen MDA-MB-231/ATCC; type: cell-based; conditions: Homo sapiens, five-dose
OVCAR-3 = assay: NCI 60 five-dose screen OVCAR-3; type: cell-based; conditions: Homo sapiens, five-dose
[1] = read-out: LC50 (the source's name) (converted)
[2] = read-out: LC50 (the source's name)

`FC(F)(F)c1cc2c(Cl)ncnc2n1CCN1CCOCC1` [NUCC-0226680] gave a GI50 (SN12C) of 19.5 µM, an IC50 (SN12C) of 38.9 µM and an IC (TGI) (SN12C) of 100 µM. For the same compound, the CC50 (SN12C; [1]) was ≥ 100 µM, the GI50 (NCI-H23) was 17.8 µM and the IC50 (NCI-H23) was 37.2 µM. The IC (TGI) (NCI-H23) was 74.1 µM, the CC50 (NCI-H23; [1]) was ≥ 100 µM and the GI50 (UACC-62) was 10.7 µM. It also gave an IC50 (UACC-62) of 20.9 µM, an IC (TGI) (UACC-62) of 32.4 µM and a CC50 (UACC-62; [1]) of 97.7 µM. It also gave a GI50 (SNB-75) of 10.2 µM, an IC50 (SNB-75) of 23.4 µM and an IC (TGI) (SNB-75) of 22.4 µM. The CC50 (SNB-75; [1]) was 49 µM, the GI50 (SW-620) was 10.5 µM and the IC50 (SW-620) was 14.5 µM. For the same compound, the IC (TGI) (SW-620) was 56.2 µM, the CC50 (SW-620; [1]) was ≥ 100 µM and the GI50 (SF-539) was 18.2 µM. It also gave an IC50 (SF-539) of 33.9 µM, an IC (TGI) (SF-539) of 42.7 µM and a CC50 (SF-539; [1]) of 97.7 µM. It also gave a GI50 (MDA-MB-468) of 2.75 µM, an IC50 (MDA-MB-468) of 15.8 µM and an IC (TGI) (MDA-MB-468) of 10.5 µM. It also gave a CC50 (MDA-MB-468; [1]) of 42.7 µM, a GI50 (ACHN) of 7.59 µM and an IC50 (ACHN) of 15.5 µM. The IC (TGI) (ACHN) was 100 µM, the CC50 (ACHN; [1]) was ≥ 100 µM and the GI50 (SK-MEL-28) was 13.5 µM. For the same compound, the IC50 (SK-MEL-28) was 25.1 µM, the IC (TGI) (SK-MEL-28) was 33.1 µM and the CC50 (SK-MEL-28; [1]) was 79.4 µM. The GI50 (SR; Homo sapiens) was 2.88 µM, the IC50 (SR; Homo sapiens) was 4.37 µM and the CC50 (SR; Homo sapiens, read-out: LC50 (the source's name)) was ≥ 100 µM. For the same compound, the TGI (SR) was 4.9 −log[M], the GI50 (A549/ATCC) was 100 µM and the IC50 (A549/ATCC) was 100 µM. The IC (TGI) (A549/ATCC) was 100 µM, the CC50 (A549/ATCC; [1]) was ≥ 100 µM and the GI50 (HCC-2998) was 2.24 µM. For the same compound, the IC50 (HCC-2998) was 4.07 µM, the IC (TGI) (HCC-2998) was 5.13 µM and the CC50 (HCC-2998; [1]) was 15.8 µM. The GI50 (SK-MEL-5) was 12.9 µM, the IC50 (SK-MEL-5) was 22.9 µM and the IC (TGI) (SK-MEL-5) was 29.5 µM. For the same compound, the CC50 (SK-MEL-5; [1]) was 67.6 µM, the GI50 (M14) was 11.5 µM and the IC50 (M14) was 20.4 µM. The IC (TGI) (M14) was 36.3 µM, the CC50 (M14; [1]) was ≥ 100 µM and the GI50 (HT29) was 27.5 µM. For the same compound, the IC50 (HT29) was 36.3 µM, the IC (TGI) (HT29) was 100 µM and the CC50 (HT29; [1]) was ≥ 100 µM. For the same compound, the GI50 (HOP-62) was 38.9 µM, the IC50 (HOP-62) was 100 µM and the IC (TGI) (HOP-62) was 100 µM. The CC50 (HOP-62; [1]) was ≥ 100 µM, the GI50 (UACC-257) was 10.5 µM and the IC50 (UACC-257) was 23.4 µM. For the same compound, the IC (TGI) (UACC-257) was 30.2 µM, the CC50 (UACC-257; [1]) was 87.1 µM and the GI50 (A498) was 100 µM. The IC50 (A498) was 100 µM, the IC (TGI) (A498) was 100 µM and the CC50 (A498; [1]) was ≥ 100 µM. It also gave a GI50 (SK-OV-3) of 100 µM, an IC50 (SK-OV-3) of 100 µM and an IC (TGI) (SK-OV-3) of 100 µM. The CC50 (SK-OV-3; [1]) was ≥ 100 µM, the GI50 (OVCAR-4) was 33.1 µM and the IC50 (OVCAR-4) was 100 µM. The IC (TGI) (OVCAR-4) was 100 µM, the CC50 (OVCAR-4; [1]) was ≥ 100 µM and the GI50 (U251) was 14.8 µM. For the same compound, the IC50 (U251) was 24 µM, the IC (TGI) (U251) was 38.9 µM and the CC50 (U251; [1]) was ≥ 100 µM. For the same compound, the GI50 (T-47D) was 38.9 µM, the IC50 (T-47D) was 100 µM and the IC (TGI) (T-47D) was 100 µM. The CC50 (T-47D; [2]) was ≥ 100 µM, the GI50 (HS 578T) was 16.6 µM and the IC50 (HS 578T) was 100 µM. The IC (TGI) (HS 578T) was 58.9 µM, the CC50 (HS 578T; [2]) was ≥ 100 µM and the GI50 (COLO 205) was 26.3 µM. The IC50 (COLO 205) was 58.9 µM, the IC (TGI) (COLO 205) was 100 µM and the CC50 (COLO 205; [1]) was ≥ 100 µM. For the same compound, the GI50 (SK-MEL-2) was 17.4 µM, the IC50 (SK-MEL-2) was 33.9 µM and the IC (TGI) (SK-MEL-2) was 33.1 µM. The CC50 (SK-MEL-2; [1]) was 64.6 µM, the GI50 (SNB-19) was 15.5 µM and the IC50 (SNB-19) was 28.8 µM. The IC (TGI) (SNB-19) was 33.1 µM, the CC50 (SNB-19; [1]) was 70.8 µM and the GI50 (MDA-MB-231/ATCC) was 4.37 µM. The IC50 (MDA-MB-231/ATCC) was 11.5 µM, the IC (TGI) (MDA-MB-231/ATCC) was 18.2 µM and the CC50 (MDA-MB-231/ATCC; [1]) was 53.7 µM. It also gave a GI50 (OVCAR-3) of 19.5 µM, an IC50 (OVCAR-3) of 37.2 µM and an IC (TGI) (OVCAR-3) of 43.7 µM. It also gave a CC50 (OVCAR-3; [1]) of 97.7 µM.
